Structures can show the parent of a compound that is named as a salt.

The source of these data is patent US5206254A, “β-carbonyl-carboxyamides of 1,3-thiazolidines” (Boehringer Mannheim Italia S.p.A., priority 1988, dated 1993).

For series [1], the system named is airways hyperreactivity, pulmonary inflation pressure (PIP). The experiment in a line: Airway hyperreactivity (PIP increase after autacoid challenge) after tobacco smoke exposure. Type of series: in vivo, guinea pig (male). The following applies: for prevention/inhibition of airway hyperreactivity (words): compounds: oral 20-60, i.v. 0.25-5, s.c. 2-15 mg/Kg, 6 MPHE 10-50 mg/Kg i.m., DSCG 20-100 mg/Kg i.m., salbutamol 0.5 mg/Kg i.v. How it is done:
In order to show this surprising pharmacological property, the compounds of the invention were tested in a bronchial hyperreactivity animal model recently developed (see Omini C. et al., 23rd Ann. Med: S.E.P.C.R., Athens 20-24th June 1988, Abstract 15S Eur. J. Resp. Dis. in press).
The airways hyperreactivity is measured as abnormal increase of the pulmonary inflation pressure (PIP) caused by the exacerbate bronchconstrictive response that follows to an autocoid challenge after active forced tobacco smoke exposure for a 10 minutes period. The abnormal PIP increase is compared with the PIP increase observed, in the same animal, before tobacco smoke, and after autacoids challenge. Male guinea pigs (400-450 g b.w.) anaesthetized with ethylurethane and pancuronium bromide were used; the recording of PIP is performed in accordance with Konzett and Rossler methods (Naumm. Schiedeberg Arch. Exp. Path/Pharmacol. 195, 71, 1940). To evidentiate such bronchial smooth muscle hyperreactivity suitable autocoids are acetylcholine, histamine, serotonine, bradykinins.
Male guinea pigs (400-450 g) are anaesthetized with ethylurethane (i.p.) and pancuronium bromide (i.v.): the trachea is cannulated and the lungs are ventilated at constant volume by connection with "Rodent respirator" Basile apparatus mod. 7025. The pulmonary inflation pressure (PIP) is measured by connection to a side-warm of the tracheal cannula of a Bell and Howell pressure transducer (mod. P 17570) that is connected to a Beckmann (mod. R 611) dynograph. The right jugular vein is catheterized for i.v. injection of autacoids and drugs. The pharmacological experiment starts with the treatment of the animal with the autocoids (for example acetylcholine by i.v. route in the interval 2.5-10 mcg/kg) in order to induce a reversible bronchoconstruction response, measured by an increase of the pulmonary inflation pressure (PIP). This increase is recorded and it is considered to represent the basal value of the animal bronochoconstrictor response to the challenge with the autocoid.
The animal is then actively exposed for a 10 minutes time period to the tobacco smoke of alighted cigarette (directly inspired by the animal). Afterwards the animal is challenged again with the autocoid, using the dosage previously injected for evokating the basal bronchoconstrictor response. The novel challenge induces an exacerbate bronochoconstrictory response and the airway hyper-reactivity is measured as the differential increase in the PIP after tobacco smoke exposure in respect to the basal value. The challenge may be repeated in the time, (2-3 hours after smoke exposure, too) until reproducible hyper-reactive responses are obtained or at different time from tobacco exposure.
(§1) A substance may be administered by i.v., oral, subcutaneous or intramuscular route at different times before tobacco smoke exposure. A compound is considered effective when it is able to prevent almost completely the exacerbate differential increase in the PIP and normalize the BAL cell cytologic pattern at the same dose level.
Differential increases of the pulmonary inflation pressure over the basal value after autacoid challenges, ranging from 150-200% are observed after smoke exposure in the animal control group (i.e. in the absence of any pharmacological treatment).
Drug treatment may be performed using different routes: intravenous, oral, subcutaneous and/or intramuscular; the substances may be administered at different times before smoke exposure and at different dose levels.
Dose related responses have been determined for reference drugs such as 6β-methyl-prednisolone-21-hemisuccinate sodium salt (6MPHE, by i.m. route, 7 hrs. b.s.l.), sodium dichromoglycate (DSCG, by i.m. route, 2 hrs. b.s.e.) and salbutamol (by i.v. route, 20 minutes before smoke exposure); the results reported in table 4, are expressed as % protection from hyperreactive reaction. […]

Series [2] relates to cytologic pattern of BAL fluids. The series is described as follows: Cytology of bronchoalveolar lavage (BAL) fluids after tobacco smoke exposure. Format: in vivo, guinea pig (male). The following applies: smoke-exposed animals; 6 MPHE 50 mg/Kg, DSCG 100 mg/Kg, salbutamol 0.5 mg/Kg.
Text: Cytologic studies of the bronochoalveolar lavage (BAL) fluids of the animals, exposed to tobacco smoke and untreated with drugs, show a statistically significant increase of the overall cell counts. Specifically, the number of epithelial cells and of eosinophils is increased, in respect to the cell content of unexposed animals.
At the end of the experiment and/or at a desired time after smoke exposure, the animal is disconnected, and the broncho-alveolar contents are examined by lavages, injecting in the trachea physiological […] solutions (10 ml×3 times). These BAL fluids are combined, centrifuged for 15 minutes at 150 g to give pellets that are suspended in physiological saline (1 ml). The total cell number of BAL fluid is counted in a Burcher camera.
Differential cell counts are made from centrifugated preparations stained with Diff-Quick® counting at least 300 cells for each sample and the % number of epithelial cells, eosinophils, neutrophils, lymphocytes and macrophages are determined.
as §1

The subject of series [3] is cough strokes provoked by electrical stimulation of the guinea pig tracheal mucosa. The experiment in a line: Electrically stimulated cough stroke test (Cavanaugh et al.). Type of series: in vivo. The following applies: for Percent reduction of cough strokes: 15 mg/kg os, one hour after drug. The text has this: Table 2 refers to results with the compounds of formula (I) in the electrically stimulated cough stroke test, in comparison with codeine phosphate.
(§2) Cough strokes are provoked by electrical stimulation of the guinea pig tracheal mucosa. according to Cavanaugh et al., (Arch. Ing. Pharmacodyn., 220, 258, 1976). Cough strokes are stimulated both before (i.e. in the absence of drug treatment) and one hour after the drug administration. […] A group of six animals is used at each dose level; this test is particularly useful for the evaluation of long lasting effects until and after three hours from the administration.

The test system of series [4] is cough strokes. The series is described as follows: Long lasting persistence of the antitussive action. Type of series: in vivo, guinea pig. The following applies: 30 mg/Kg os.
Text: as §2
The results showing the long lasting persistance of the antitussive action is reported in Table 3 in comparison with codeine phosphate; all the substances are administered at 30 mg/Kg by oral route.

Series [5] is described as follows: Acute toxicity (LD50) in rats, oral. The settings on record: rat, in vivo, 14th day of observation, read-out: DL50. The method, then:
The compounds of the invention are therapeutically useful substances, practically free of acute, subacute or chronic toxic effects. LD50 values, usually exceeding 1 g/kg body weight are measured in mice and in rats after oral and intraperitoneal (i.p.) administration of the compounds of the invention. Only N-diethylaminoethylamino, N'-[(R,S)-2-(2-methoxyphenoxymethyl)-1,3-thiazolidine]-malondiamide and N-β-pyridylmethylamino-N'-[(R,S)-2-(2-methoxy-phenoxy-methyl)-1,3-thiazolidine]-malondiamide show DL50 values of 0.25 and 0.85 g/Kg respectively after oral administration to rats at the 14th day of observation.

Series [6] deals with cough strokes, evokated by the two experimental models. The series is described as follows: In vivo experiments with naloxone in the two cough models. Further details: species or system guinea pig.

As for `C[C@H]1C[C@@H]2[C@H]([C@@H](O)C[C@@]3(C)[C@H]2CC[C@]3(O)C(=O)COC(=O)CCC(=O)O)[C@@]2(C)C=CC(=O)C=C12` [Compound 6MPHE, 6α-methyl-prednisolone-21-hemisuccinatesodium salt], the “% protection from hyperreactive reaction” value came to 65% in series [1] (6MPHE 10 mg/kg i.m., 7 hrs before smoke exposure); 85% in series [1] (6MPHE 25 mg/kg i.m., 7 hrs before smoke exposure); 100% in series [1] (6MPHE 50 mg/kg i.m., 7 hrs before smoke exposure). The “prevention/inhibition of airway hyperreactivity (words)” value (“prevention/inhibition” below) in series [1] is listed as “preventing airway hyperreactivity”; in series [1] (listed as 6α-methyl-prednisolone- 21-hemisuccinatesodium salt (6 MPHE)) it was “effective”. Besides, the “normalization of BAL fluid cytology” value in series [2] was “able to normalize the cellular pattern in the BAL fluids”.

As to `COc1ccccc1OCC1SCCN1C(=O)CC(=O)O` (racemic) [Compound 10, (R,S)-2-(2-methoxy-phenoxymethyl)-3-carboxyacetyl-1,3-thiazolidine], the “prevention/inhibition” value in series [1] is listed as “effective inhibitors of the hyperreactive reaction”.

`COc1ccc2c3c1O[C@H]1[C@@H](O)C=C[C@H]4[C@@H](C2)N(C)CC[C@@]341` [Codeine phosphate, reference compound]: the “Percent reduction of cough strokes” value in series [3] came out at 58%. In addition, in series [4], the “Percentage reduction of cough strokes during treatment, 1 h” value (“Percentage reduction … 1 h” below) worked out at 77%; the “Percentage reduction of cough strokes during treatment, 2 h” value (from here on “Percentage reduction … 2 h”) stood at 53%; the “Percentage reduction of cough strokes during treatment, 3 h” value (shortened to “Percentage reduction … 3 h”) was determined as 46%.

For the compound “(R,S)-2-(2-methoxy-phenoxymethyl)-3-(3-oxo-butanoyl)-1,3-thiazolidine [Compound 6]”, in series [3], the “Percent reduction of cough strokes” value is reported as 14%.

Broadly, the ED50 is the midpoint of the dose-response relation. Read a high ED50 as weaker potency. In the case of “(+)-[2-(2-methoxyphenoxymethyl)-3-ethoxycarbonyl]-1,3-thiazolidine [Compound 8]”, the “Percent reduction of cough strokes” value in series [3] is reported as 63%. Besides, in series [3] (os, electrical stimulation (Table II)), the median effective dose (ED50) worked out at 12 mg/kg.

`CCN(CC)CCNC(=O)CC(=O)N1CCSC1COc1ccccc1OC` (racemic) [Example 14, N-(diethylaminoethyl), N'-[(R,S)-2-(2-methoxy-phenoxymethyl)-1,3-thiazolidine]-malondiamide]: the LD50 at 336 h in series [5] worked out at 250 mg/kg.

As for `O=C(O)c1cc(=O)c2c(OCC(O)COc3cccc4oc(C(=O)O)cc(=O)c34)cccc2o1` [DSCG], the “% protection from hyperreactive reaction” value in series [1] (DSCG 25 mg/kg i.m., 2 hrs before smoke exposure) worked out at 27%; in series [1] (DSCG 50 mg/kg i.m., 2 hrs before smoke exposure), 64%; in series [1] (DSCG 100 mg/kg i.m., 2 hrs before smoke exposure), 100%. The “prevention/inhibition” value in series [1] is reported as “preventing airway hyperreactivity”; in series [1] (listed as Dichromoglycate (DSCG)), “effective”. In addition, the “normalization of BAL fluid cytology” value in series [2] was “able to normalize the cellular pattern in the BAL fluids”.

“(R,S)-2-(2-methoxy-phenoxymethyl)-3-ethoxycarbonylacetyl-1,3-thiazolidine [Compound 7]”: in series [3], the “Percent reduction of cough strokes” value is recorded as 18%. Also, the “prevention/inhibition” value in series [1] (listed as (R,S)-2-(2-methoxyphenoxymethyl)-3-ethoxycarbonylacetyl-1,3-thiazolidine) was “highly effective”. Further, the “prevention/inhibition” value in series [1] (listed as (R,S)-2-[2-methoxy-phenoxymethyl)-3-ethoxycarbonylacetyl-1,3-thiazolidine) is on record as “effective inhibitors of the hyperreactive reaction”. Besides, the “protective effect after naloxone pretreatment” value in series [6] (naloxone 5 mg/Kg s.c. pretreatment, substance 30 mg/Kg os) is listed as “complete protection against cough strokes”. Moreover, in series [4], the “Percentage reduction … 1 h” value is 70%; the “Percentage reduction … 2 h” value is on record as 60%; the “Percentage reduction … 3 h” value is listed as 40%.

As for `CC(C)(C)NCC(O)c1ccc(O)c(CO)c1` (centres unmarked) [Salbutamol], in series [1] (Salbutamol 5 mg/kg i.v., 20 minutes before smoke exposure), the “% protection from hyperreactive reaction” value is recorded as 90%. Further, the “prevention/inhibition” value in series [1] is listed as “effective”. In addition, the “normalization of BAL fluid cytology” value in series [2] was “fails to modify the smoke induced pathological changes of the BAL fluid cytology”.

Take `CNC(=O)CC(=O)N1CCSC1COc1ccccc1OC` (racemic) [Compound 11, N-methylamino-N-[(R,S)-2-(2-methoxy-phenoxymethyl)-1,3-thiazolidine]-malondiamide]: in series [4], the “Percentage reduction … 1 h” value is reported as 24%; the “Percentage reduction … 2 h” value is given as 48%; the “Percentage reduction … 3 h” value is reported as 60%.

Take `COc1ccccc1OCC1SCCN1C(=O)CC(=O)NCc1cccnc1` (centres unmarked): in series [4], the “Percentage reduction … 1 h” value was determined as 80%; the “Percentage reduction … 2 h” value is 67%; the “Percentage reduction … 3 h” value was determined as 60%.

Regarding `C=CCN1CC[C@]23c4c5ccc(O)c4O[C@H]2C(=O)CC[C@@]3(O)[C@H]1C5` [naloxone, reference compound], in series [6] (5 mg/kg s.c., both experimental models), the “protection against cough strokes by naloxone alone” value is recorded as “unable to protect guinea pig against cough strokes”.
